Positions of bridges follow the written chain, without caps; N, C: chain ends. Non-standard residues stand in square brackets, D forms with d. Residues, ends and D or L forms follow the SMILES beside them. *: point of attachment. hhPhe = N[C@@H](CCCc1ccccc1)C(=O)O; NMeF = CN[C@@H](Cc1ccccc1)C(=O)O; hPhe = N[C@@H](CCc1ccccc1)C(=O)O; NMeL = CN[C@@H](CC(C)C)C(=O)O; NMeV = CN[C@H](C(=O)O)C(C)C; NMeA = CN[C@@H](C)C(=O)O; Piperidide = C1CCN(*)CC1; dNMeA = CN[C@H](C)C(=O)O; Sar = CNCC(=O)O; tBu = CC(C)(C)*
Key:
[1] = PAMPA (parallel artificial membrane permeability assay); assay type: in vitro ADME; conditions: PAMPA; membrane permeation rate (Pe); 50 mM MOPSO buffer pH 6.5 with 5.0% glycocholic acid, 37° C., 18 hours; read-out: iPAMPA Pe
Outline: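 Artificial membrane was 10% (w/v) egg lecithin plus 0.5% (w/v) cholesterol in dodecane on a PVDF filter. A 10 mM DMSO stock was added at 0.5% (v/v) to donor buffer (50 mM MOPSO, pH 6.5, 5.0% glycocholic acid). After 18 h at 37 °C, LC/MS or LC/UV gave donor and acceptor levels for Pe.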

[2] = Metabolic stability in human hepatic microsome; assay type: in vitro ADME; conditions: microsomes, pH 7.4; human hepatic microsome, NADPH(+); read-out: CL NADPH(+)

| SMILES | Papp at 18 hours, 50 µM [1] [×10⁻⁶ cm/s] | microsomal CLint at 1 uM [2] [µL/min/mg] |
| --- | --- | --- |
| CC(C)C[C@H]1C(=O)N(C)[C@@H](CC(C)C)C(=O)N[C@H](C(=O)N2CCCCC2)CC(=O)N[C@H](C)C(=O)N(C)[C@@H](Cc2ccccc2)C(=O)N(C)[C@@H](CC(C)C)C(=O)N[C@@H]([C@@H](C)O)C(=O)N1C [DP-721] ([dA][NMeF][NMeL]T[NMeL][NMeL]D-Piperidide; lactam N-7) | 49 | 915 |
| CC(C)C[C@@H]1NC(=O)[C@H]([C@@H](C)O)NC(=O)[C@H](CC(C)C)N(C)C(=O)[C@H](Cc2ccccc2)N(C)C(=O)[C@H](CC(C)C)N(C)C(=O)C[C@@H](C(=O)N2CCCCC2)NC(=O)[C@H](CC(C)C)N(C)C1=O [DP-722] ([NMeL][NMeF][NMeL]TL[NMeL]D-Piperidide; lactam N-7) | 45 | 311 |
| CC(C)C[C@@H]1NC(=O)[C@H]([C@@H](C)O)NC(=O)[C@H](CC(C)C)N(C)C(=O)CN(C)C(=O)[C@H](Cc2ccccc2)N(C)C(=O)[C@H](CC(C)C)NC(=O)C[C@@H](C(=O)N2CCCCC2)NC1=O [DP-723] (L[NMeF][Sar][NMeL]TLD-Piperidide; lactam N-7) | 26 | 154 |
| CC(C)C[C@H]1C(=O)N[C@@H](COC(C)(C)C)C(=O)N(C)CC(=O)N[C@@H]([C@@H](C)O)C(=O)N[C@H](C(=O)N2CCCCC2)CC(=O)N[C@@H](C(C)C)C(=O)N(C)[C@@H](Cc2ccccc2)C(=O)N1C [DP-724] (V[NMeF][NMeL]S(tBu)[Sar]TD-Piperidide; lactam N-7) | 20 | 160 |
| CC(C)C[C@H]1C(=O)N[C@H](C(=O)N2CCCCC2)CC(=O)N(C)[C@H](C)C(=O)N(C)[C@@H](CC(C)C)C(=O)N[C@@H]([C@@H](C)O)C(=O)N(C)[C@@H](CC(C)C)C(=O)N[C@@H](COC(C)(C)C)C(=O)N1C [DP-725] ([dNMeA][NMeL]T[NMeL]S(tBu)[NMeL]D-Piperidide; lactam N-7) | 35 | 138 |
| CC(C)C[C@@H]1NC(=O)C[C@@H](C(=O)N2CCCCC2)NC(=O)[C@H](CC(C)C)N(C)C(=O)[C@H](CC(C)C)NC(=O)[C@H](CC(C)C)N(C)C(=O)[C@H]([C@@H](C)O)NC(=O)CN(C)C1=O [DP-726] (L[Sar]T[NMeL]L[NMeL]D-Piperidide; lactam N-7) | 17 | 75 |
| CC(C)C[C@@H]1NC(=O)[C@H](C(C)C)NC(=O)C[C@@H](C(=O)N2CCCCC2)NC(=O)[C@H]([C@@H](C)O)NC(=O)CN(C)C(=O)[C@H](CC(C)C)N(C)C(=O)[C@H](CC(C)C)N(C)C1=O [DP-727] (VL[NMeL][NMeL][Sar]TD-Piperidide; lactam N-7) | 16 | 59 |
| CC[C@H](C)[C@@H]1NC(=O)[C@H](CC(C)C)NC(=O)[C@H](C(C)C)NC(=O)[C@H](CC(C)C)N(C)C(=O)[C@H](CC(C)C)NC(=O)[C@H](CCc2ccccc2)NC(=O)[C@H]([C@@H](C)O)NC(=O)[C@H](C)N(C)C(=O)[C@H](CC(C)C)NC(=O)[C@H](C)N(C)C(=O)C[C@@H](C(=O)N2CCCCC2)NC1=O [DP-728] ([NMeA]L[NMeA]T[hPhe]L[NMeL]VLID-Piperidide; lactam N-11) | 6.5 | 42 |
| CC[C@H](C)[C@@H]1NC(=O)[C@H](CC(C)C)NC(=O)[C@H](C(C)C)NC(=O)[C@H](CC(C)C)N(C)C(=O)[C@H](CC(C)C)NC(=O)[C@H](CCCc2ccccc2)NC(=O)[C@H]([C@@H](C)O)NC(=O)[C@H](C)N(C)C(=O)[C@H](CC(C)C)NC(=O)[C@H](C)N(C)C(=O)C[C@@H](C(=O)N2CCCCC2)NC1=O [DP-729] ([NMeA]L[NMeA]T[hhPhe]L[NMeL]VLID-Piperidide; lactam N-11) | 4.7 | 54 |
| CC[C@H](C)[C@@H]1NC(=O)[C@H](Cc2ccccc2)N(C)C(=O)[C@H](CCCc2ccccc2)NC(=O)[C@H](C(C)C)N(C)C(=O)[C@H](CC(C)C)N(C)C(=O)[C@H](CC(C)C)NC(=O)[C@@H](C)NC(=O)C[C@@H](C(=O)N2CCCCC2)NC(=O)[C@H]([C@@H](C)O)NC(=O)[C@H](C)NC(=O)[C@H](C)N(C)C1=O [DP-731] ([dA]L[NMeL][NMeV][hhPhe][NMeF]I[NMeA]ATD-Piperidide; lactam N-11) | 48 | 53 |
| CC(C)C[C@@H]1NC(=O)[C@@H]2CCCN2C(=O)[C@H](Cc2ccccc2)N(C)C(=O)[C@H](C)N(C)C(=O)[C@H]([C@@H](C)O)NC(=O)[C@@H](C(C)C)NC(=O)C[C@@H](C(=O)N2CCCCC2)NC(=O)[C@H](CC(C)C)N(C)C(=O)[C@H](C)N(C)C(=O)[C@H](CCc2ccccc2)NC(=O)[C@H](C(C)C)N(C)C1=O [DP-732] ([dV]T[NMeA][NMeF]PL[NMeV][hPhe][NMeA][NMeL]D-Piperidide; lactam N-11) | 26 | 57 |
| CC(C)C[C@@H]1NC(=O)[C@@H]2CCCN2C(=O)[C@H](Cc2ccccc2)N(C)C(=O)[C@H](C)N(C)C(=O)[C@H]([C@@H](C)O)NC(=O)[C@@H](C(C)C)NC(=O)C[C@@H](C(=O)N2CCCCC2)NC(=O)[C@H](CC(C)C)N(C)C(=O)[C@H](C)N(C)C(=O)[C@H](CCCc2ccccc2)NC(=O)[C@H](C(C)C)N(C)C1=O [DP-733] ([dV]T[NMeA][NMeF]PL[NMeV][hhPhe][NMeA][NMeL]D-Piperidide; lactam N-11) | 26 | 97 |
| CC(C)C[C@H]1C(=O)N(C)[C@@H](C(C)C)C(=O)N(C)[C@@H](C)C(=O)N[C@@H](CCc2ccccc2)C(=O)N(C)[C@@H](C)C(=O)N[C@H](C(=O)N2CCCCC2)CC(=O)N(C)[C@@H](C)C(=O)N[C@@H]([C@@H](C)O)C(=O)N(C)[C@@H](C)C(=O)N[C@@H](C)C(=O)N(C)[C@@H](Cc2ccccc2)C(=O)N1C [DP-734] ([NMeA]T[NMeA]A[NMeF][NMeL][NMeV][NMeA][hPhe][NMeA]D-Piperidide; lactam N-11) | 16 | 84 |
| CC(C)C[C@H]1C(=O)N(C)[C@@H](C(C)C)C(=O)N(C)[C@@H](C)C(=O)N[C@@H](CCCc2ccccc2)C(=O)N(C)[C@@H](C)C(=O)N[C@H](C(=O)N2CCCCC2)CC(=O)N(C)[C@@H](C)C(=O)N[C@@H]([C@@H](C)O)C(=O)N(C)[C@@H](C)C(=O)N[C@@H](C)C(=O)N(C)[C@@H](Cc2ccccc2)C(=O)N1C [DP-735] ([NMeA]T[NMeA]A[NMeF][NMeL][NMeV][NMeA][hhPhe][NMeA]D-Piperidide; lactam N-11) | 21 | 88 |
| CC(C)C[C@@H]1NC(=O)[C@H](C(C)C)N(C)C(=O)[C@H](CCc2ccccc2)NC(=O)CN(C)C(=O)[C@H]([C@@H](C)O)NC(=O)[C@H](C)N(C)C(=O)[C@H](CC(C)C)N(C)C(=O)[C@@H](C(C)C)NC(=O)C[C@@H](C(=O)N2CCCCC2)NC(=O)[C@H](C)NC(=O)[C@H](CC(C)C)N(C)C1=O [DP-736] ([dV][NMeL][NMeA]T[Sar][hPhe][NMeV]L[NMeL]AD-Piperidide; lactam N-11) | 27 | 47 |
| CC(C)C[C@@H]1NC(=O)[C@H](C(C)C)N(C)C(=O)[C@H](CCCc2ccccc2)NC(=O)CN(C)C(=O)[C@H]([C@@H](C)O)NC(=O)[C@H](C)N(C)C(=O)[C@H](CC(C)C)N(C)C(=O)[C@@H](C(C)C)NC(=O)C[C@@H](C(=O)N2CCCCC2)NC(=O)[C@H](C)NC(=O)[C@H](CC(C)C)N(C)C1=O [DP-737] ([dV][NMeL][NMeA]T[Sar][hhPhe][NMeV]L[NMeL]AD-Piperidide; lactam N-11) | 30 | 45 |

— US9409952B2, “Peptide-compound cyclization method” (Chugai Seiyaku Kabushiki Kaisha, priority 2011, dated 2016)
